Measurements from US20060046009A1, “Optical disk” (TDK Corporation, priority 2004, published 2006).

Assay: Solubility of the cyanine dyes in 2,2,3,3-tetrafluoro-1-propanol
Format: physicochemical
Settings: in 2,2,3,3-tetrafluoro-1-propanol (TFP)
Text: FIGS. 1 and 2 are schematic fragmentary sectional views showing the vicinities of grooves in the optical disks according to Example 1 (counter ion: PF6^−) and Comparative Example 2 (counter ion: I^−), respectively. […] Thus, the optical disk in Example 1 has more uniform dye

| Solubility in TFP | SMILES |
| --- | --- |
| 15 mg/mL | CN1/C(=C/C=C/C2=[N+](C)c3c(ccc4ccccc34)C2(C)C)C(C)(C)c2cc(Cl)ccc21 [Example 1] |
| 8 mg/mL | CN1/C(=C/C=C/C2=[N+](C)c3ccc4ccccc4c3C2(C)Cc2ccccc2)C(C)(C)c2c1ccc1ccccc21 (centres unmarked) [Example 2] |
